The numbers were not newly measured in patent publication US20190070157A1, “HYPERBARIC SOLUTION INJECTION OF LEVOBUPIVACAINE HYDROCHLORIDE COMPRISING LEVOBUPIVACAINE HYDROCHLORIDE” (NEON LABORATORIES LIMITED, priority 2015, published 2019), which cites them from elsewhere.

The structures appear in SMILES notation.

For this data set the following is noted: animal studies, compared with bupivacaine.

Take `CCCCN1CCCC[C@H]1C(=O)Nc1c(C)cccc1C` [Levobupivacaine]: the “risk of cardiovascular and CNS toxicity” value is “lower risk of cardiovascular and CNS toxicity than bupivacaine”.
